Patent US20070208087A1, “Compounds, compositions and methods for the treatment of inflammatory diseases” (priority 2001, published 2007)
“And” between values parts separate entries of the source, which are not always exact repeats. Equal values may be shown once. Read-outs that look alike come from different tables or passages of the source.

What was measured:
Type in all cases: cell-based
Microglial cells [1] = assay: Dose response inhibition of NO release from microglia, 0.75-200 μM (Example 8)
Outline: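 Microglia plated at 1×10^5 cells/ml, stimulated with LPS/IFNγ and treated at 0.75, 1.56, 3.125, 6.25, 12.5, 25, 50, 100 and 200 μM. NO release measured after 48 hours by Griess reaction.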

Microglial cells [2] = assay: Dose response inhibition of NO release from microglia, 0.5-500 μM (Example 9); conditions: for μM NO release / μM NO release (No LPS average subtracted): 3 replicates
Description: This experiment was designed to determine the dose response inhibition of NO release from microglia by bis- and tris-dihydroxyaryl compounds when stimulated with LPS/IFNγ. Earlier experiments have demonostrated that some bis- and tris-dihydroxyaryl compounds are good inhibitors of NO release from microglia. This experiment is designed to determine a dose response for various effective bis- and tris-dihydroxyaryl compounds. Microglial cells were plated into 96 well plates at 1×10^5 cells/ml. At 48 hours, media was exchanged for media containing 10 ng/ml IFNγ and 10 μg/ml LPS and the following compounds 3, 4, 21, 26 and the positive control L-NAME. The doses tested were: 0.5 μM, 1.0 μM, 5.0 μM, 10 μM, 25 μM, 50 μM, 100 μM, 250 μM, and 500 μM. Nitric oxide release was measured after 48 hours using the Griess reaction.

[3] = test system: TNF-α release from microglia; assay: TNF-α release from LPS/IFNγ stimulated microglia, TNF-α ELISA (Example 11); conditions: 50 uM compound, TNF-α release, 10 ug LPS and 10 ng IFNγ, 24 hours
Outline: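 Microglia pretreated 1 h with 50 μM bis-/tris-dihydroxyaryl compound, then stimulated with 10 μg/ml LPS + 10 ng/ml IFNγ for 24 h. Medium sampled, stored at −80°, diluted 1:50 and TNF-α measured by ELISA.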

microglia = assay: Ranking of NO release inhibition (Example 12); conditions: Microglia, ranking table
From the text: The bis- and tris-dihydroxyaryl compounds were ranked in order of effectiveness for the inhibition of NO release as set out in Table 8.

[4] = dose 0.75 μM, 48 hours, single replicates
[5] = dose 1.56 μM, 48 hours, single replicates
[6] = dose 3.125 μM, 48 hours, single replicates
[7] = dose 6.25 μM, 48 hours, single replicates
[8] = dose 12.5 μM, 48 hours, single replicates
[9] = dose 25 μM, 48 hours, single replicates
[10] = dose 50 μM, 48 hours, single replicates
[11] = dose 100 μM, 48 hours, single replicates
[12] = dose 200 μM, 48 hours, single replicates
[13] = dose 0.5 μM, LPS/IFNγ, 48 hours
[14] = dose 100 μM, LPS/IFNγ, 48 hours
[15] = dose 250 μM, LPS/IFNγ, 48 hours
[16] = dose 500 μM, LPS/IFNγ, 48 hours

## O=C(N[C@@H]1CCCC[C@H]1NC(=O)c1ccc(O)c(O)c1)c1ccc(O)c(O)c1 (relative stereo) [Compound 26, N,N′-bis(3,4-dihydroxybenzoyl)-trans-1,2-diaminocyclohexane]
Microglial cells [1]; Microglia, 48 h, dose 0.75 μM
  inhibition at 0.75 µM: -1.78%
Microglial cells [1]; Microglia, 48 h, dose 1.56 μM
  inhibition at 1.56 µM: 6%
Microglial cells [1]; Microglia, 48 h, dose 3.125 μM
  inhibition at 3.125 µM: 5.78%
Microglial cells [1]; Microglia, 48 h, dose 6.25 μM, 48 hours, read-out: Avg % Inhibition
  inhibition at 6.25 µM: 0.428%
Microglial cells [1]; Microglia, 48 h, dose 12.5 μM, 48 hours, read-out: Avg % Inhibition
  inhibition at 12.5 µM: 10.1%
Microglial cells [1]; Microglia, 48 h, dose 12.5 μM, 48 hours, single replicates, read-out: % inhibition
  inhibition at 12.5 µM: 10.1%
Microglial cells [1]; Microglia, 48 h, dose 25 μM, 48 hours, read-out: Avg % Inhibition
  inhibition at 25 µM: 10.1%
Microglial cells [1]; Microglia, 48 h, dose 25 μM, 48 hours, single replicates, read-out: % inhibition
  inhibition at 25 µM: 13.3%
Microglial cells [1]; Microglia, 48 h, dose 50 μM, 48 hours, read-out: Avg % Inhibition
  inhibition at 50 µM: 19.7%
Microglial cells [1]; Microglia, 48 h, dose 50 μM, 48 hours, single replicates, read-out: % inhibition
  inhibition at 50 µM: 19.7%
Microglial cells [1]; Microglia, 48 h, dose 100 μM, 48 hours, read-out: Avg % Inhibition
  inhibition at 100 µM: 23.6%
Microglial cells [1]; Microglia, 48 h, dose 200 μM, 48 hours, read-out: Avg % Inhibition
  inhibition at 200 µM: 44.5%
Microglial cells [1]; Microglia, 48 h, dose 200 μM, 48 hours, single replicates, read-out: % inhibition
  inhibition at 200 µM: 46%
Microglial cells [1]; dose 0.75 μM, 48 hours
  μM NO release Avg: 24.756 µM
Microglial cells [1]; [4]
  % inhibition: 1.07% and −4.91% and −1.50%
  OD values (printed under head μM NO release): 0.21 and 0.206 and 0.215
  μM NO release: 24.688 µM and 24.063 µM and 25.517 µM
Microglial cells [1]; dose 1.56 μM, 48 hours
  μM NO release Avg: 22.865 µM
Microglial cells [1]; [5]
  % inhibition: 9.42% and 2.36% and 6.21%
  OD values (printed under head μM NO release): 0.198 and 0.193 and 0.204
  μM NO release: 22.813 µM and 22.031 µM and 23.750 µM
Microglial cells [1]; dose 3.125 μM, 48 hours
  μM NO release Avg: 22.917 µM
Microglial cells [1]; [6]
  % inhibition: 8.14% and 2.36%
  OD values (printed under head μM NO release): 0.197 and 0.195 and 0.204
  μM NO release: 22.656 µM and 22.344 µM and 23.750 µM
Microglial cells [1]; dose 6.25 μM, 48 hours
  μM NO release Avg: 24.219 µM
Microglial cells [1]; [7]
  % inhibition: 3.64% and −2.14% and −0.21%
  OD values (printed under head μM NO release): 0.208 and 0.202 and 0.211
  μM NO release: 24.375 µM and 23.438 µM and 24.844 µM
Microglial cells [1]; dose 12.5 μM, 48 hours
  μM NO release Avg: 21.875 µM
Microglial cells [1]; [8]
  OD values (printed under head μM NO release): 0.192
  μM NO release: 21.875 µM
Microglial cells [1]; dose 25 μM, 48 hours
  μM NO release Avg: 21.875 µM
Microglial cells [1]; [9]
  OD values (printed under head μM NO release): 0.197 and 0.187 and 0.192
  μM NO release: 22.656 µM and 21.094 µM and 21.875 µM
Microglial cells [1]; dose 50 μM, 48 hours
  μM NO release Avg: 19.531 µM
Microglial cells [1]; [10]
  % inhibition: 18.42% and 20.99%
  OD values (printed under head μM NO release): 0.175 and 0.177 and 0.179
  μM NO release: 19.219 µM and 19.531 µM and 19.844 µM
Microglial cells [1]; dose 100 μM, 48 hours
  μM NO release Avg: 18.594 µM
Microglial cells [1]; [11]
  % inhibition: 17.13% and 19.06% and 34.48%
  OD values (printed under head μM NO release): 0.154 and 0.181 and 0.178
  μM NO release: 15.938 µM and 20.156 µM and 19.688 µM
Microglial cells [1]; dose 200 μM, 48 hours
  μM NO release Avg: 13.490 µM
Microglial cells [1]; [12]
  % inhibition: 40.26% and 47.32%
  OD values (printed under head μM NO release): 0.134 and 0.136 and 0.145
  μM NO release: 12.813 µM and 13.125 µM and 14.531 µM
Microglial cells [2]; Microglia, 48 h, dose 0.5 μM, NO release, LPS/IFNγ, 48 hours, read-out: Avg % Inhibition
  inhibition at 0.5 µM: -4.06%
Microglial cells [2]; Microglia, 48 h, dose 1 μM, NO release, LPS/IFNγ, 48 hours, read-out: Avg % Inhibition
  inhibition at 1 µM: 0.51%
Microglial cells [2]; Microglia, 48 h, dose 5 μM, NO release, LPS/IFNγ
  inhibition at 5 µM: -4.31%
Microglial cells [2]; Microglia, 48 h, dose 10 μM, NO release, LPS/IFNγ
  inhibition at 10 µM: -1.01%
Microglial cells [2]; Microglia, 48 h, dose 25 μM, NO release, LPS/IFNγ
  inhibition at 25 µM: 6.85%
Microglial cells [2]; Microglia, 48 h, dose 50 μM, NO release, LPS/IFNγ
  inhibition at 50 µM: 6.59%
Microglial cells [2]; Microglia, 48 h, dose 100 μM, NO release, LPS/IFNγ, 48 hours, read-out: Avg % Inhibition
  inhibition at 100 µM: 16.2%
Microglial cells [2]; Microglia, 48 h, dose 100 μM, individual replicates, NO release, LPS/IFNγ, 48 hours, read-out: % inhibition
  inhibition at 100 µM: 17.2%
Microglial cells [2]; Microglia, 48 h, dose 250 μM, NO release, LPS/IFNγ, 48 hours, read-out: Avg % Inhibition
  inhibition at 250 µM: 35.2%
Microglial cells [2]; Microglia, 48 h, dose 250 μM, individual replicates, NO release, LPS/IFNγ, 48 hours, read-out: % inhibition
  inhibition at 250 µM: 36.3%
Microglial cells [2]; Microglia, 48 h, dose 500 μM, NO release, LPS/IFNγ, 48 hours, read-out: Avg % Inhibition
  inhibition at 500 µM: 99.5%
Microglial cells [2]; Microglia, 48 h, dose 500 μM, individual replicates, NO release, LPS/IFNγ, 48 hours, read-out: % inhibition
  inhibition at 500 µM: 98.4%
Microglial cells [2]; Microglia, 48 h, highest concentration tested (500 μM), 48 hours, read-out: inhibited NO release by
  inhibition at 500 µM: 99%
Microglial cells [2]; [13]
  μM NO release: 21.667 µM and 19.306 µM and 21.111 µM
  μM NO release (No LPS average subtracted): 19.97 µM and 17.61 µM and 19.41 µM
Microglial cells [2]; dose 0.5 μM, individual replicates, NO release, LPS/IFNγ, 48 hours
  % inhibition: −9.38% and 3.55% and −6.34%
Microglial cells [2]; dose 1 μM, LPS/IFNγ, 48 hours
  μM NO release: 19.722 µM and 19.028 µM and 20.833 µM
  μM NO release (No LPS average subtracted): 18.02 µM and 17.33 µM and 19.13 µM
Microglial cells [2]; dose 1 μM, individual replicates, NO release, LPS/IFNγ, 48 hours
  % inhibition: 1.27% and 5.07% and −4.82%
Microglial cells [2]; dose 5 μM, LPS/IFNγ, 48 hours
  μM NO release: 20.000 µM and 21.528 µM and 20.694 µM
  μM NO release (No LPS average subtracted): 18.30 µM and 19.83 µM and 18.99 µM
Microglial cells [2]; dose 5 μM, individual replicates, NO release, LPS/IFNγ, 48 hours
  % inhibition: −0.25% and −8.62%
Microglial cells [2]; dose 10 μM, LPS/IFNγ, 48 hours
  μM NO release: 20.139 µM and 19.583 µM and 20.694 µM
  μM NO release (No LPS average subtracted): 18.44 µM and 17.88 µM and 18.99 µM
Microglial cells [2]; dose 10 μM, individual replicates, NO release, LPS/IFNγ, 48 hours
  % inhibition: 2.03%
Microglial cells [2]; dose 25 μM, LPS/IFNγ, 48 hours
  μM NO release: 18.194 µM and 18.333 µM and 19.583 µM
  μM NO release (No LPS average subtracted): 16.49 µM and 16.63 µM and 17.88 µM
Microglial cells [2]; dose 25 μM, individual replicates, NO release, LPS/IFNγ, 48 hours
  % inhibition: 9.64% and 8.88% and 2.03%
Microglial cells [2]; dose 50 μM, LPS/IFNγ, 48 hours
  μM NO release: 18.333 μM (2×) and 19.583 μM
  μM NO release (No LPS average subtracted): 16.63 μM (2×) and 17.88 μM
Microglial cells [2]; dose 50 μM, individual replicates, NO release, LPS/IFNγ, 48 hours
  % inhibition: 8.88% (2×) and 2.03%
Microglial cells [2]; [14]
  μM NO release: 16.806 μM (2×) and 17.361 μM
  μM NO release (No LPS average subtracted): 15.11 μM (2×) and 15.66 μM
Microglial cells [2]; dose 100 μM, individual replicates, NO release, LPS/IFNγ, 48 hours
  % inhibition: 14.20%
Microglial cells [2]; [15]
  μM NO release: 13.333 µM and 13.194 µM and 14.028 µM
  μM NO release (No LPS average subtracted): 11.63 µM and 11.49 µM and 12.33 µM
Microglial cells [2]; dose 250 μM, individual replicates, NO release, LPS/IFNγ, 48 hours
  % inhibition: 37.03% and 32.46%
Microglial cells [2]; [16]
  μM NO release: 2.000 µM and 1.500 µM and 1.867 µM
  μM NO release (No LPS average subtracted): 0.30 µM and -0.20 µM and 0.17 µM
Microglial cells [2]; dose 500 μM, individual replicates, NO release, LPS/IFNγ, 48 hours
  % inhibition: 101.10% and 99.09%
[3]; individual replicates, 50 µM
  % inhibition: −12.44% and −21.81% and −16.22%
[3]; Microglia, 24 h, read-out: Avg % Inhibition
  inhibition at 50 µM: -16.8%
microglia
  inhibition at 50 µM: 20%
